Assay results taken from patent US20220062340A1, “IMMUNOTHERAPEUTIC METHODS AND COMPOSITIONS” (KING'S COLLEGE LONDON, priority 2018, published 2022).
“And” between values parts separate entries of the source, which are not always exact repeats. Equal entries are not always repeated.

Columns and labels:
FOXP3 in Tregs = experiment: FOXP3 expression of ex vivo expanded Tregs; assay type: cell-based, human; conditions: Tregs expanded in the presence of the agonist
Method: (§1) FACS-sorted Treg populations were plated at 1×10^6 or 0.5×10^6 in X-VIVO-15 medium and activated with anti-CD3/anti-CD28 coated beads (Dynabeads®, Invitrogen, Paisley, UK) at 1:1 bead: cell ratio. Rapamycin was added at day 0 of culture at a final concentration of 100 nM/L +/−ATRA 1 nM/L or RAR568 1 nM/L. Next, 1,000 IU/ml recombinant human IL-2 (rhlL-2) (Proleukin®, Novartis, Camberley, UK) was added at day 5 of culture. Cells were re-stimulated every 10-12 days and expanded for a total of 24-30 days. The phenotype and suppressive ability were assessed at the end of the culture period.
(§2) Flow cytometry panels have been designed to assess the subtypes of regulatory T cells in patients with CD as well as their expression of gut homing molecules. Gating was performed based on natural populations when assessing for CD4^+CD25^highCD127low populations, as well as for CD45RA^+ Treg populations. Additionally, to minimize bias in the assessment of expression of gut homing markers and transcription factors, a fluorochrome minus one (FMO) panel was added for each marker of interest in each experiment that was performed.

Effector T cells (Teff) = experiment: Treg suppression assay (proliferation of CFSE-labelled Teff); assay type: cell-based, human; conditions: lowest (8:1) Teff:Treg titration, FIG. 2e
Method: Effector T cells (Teff) were labelled with carboxyfluorescein succinimidyl ester (CFSE, Invitrogen) according to standard protocols. Cells were washed with phosphate buffered saline (PBS) to remove excess protein. Cells were then incubated with a 1 μM/L CFSE solution in the dark at room temperature for 4 minutes. The reaction was then quenched with 9 ml of complete medium.
Teff were activated with anti-CD3/anti-CD28 micro beads at a bead: Teff ratio of 0.02:1. 1×10^5 Teff were then cultured either alone or with Tregs in serial dilutions. The ratios of Teff: Treg were 1:1, 2:1, 4:1, and 8:1. This was done in X-VIVO-15 and proliferation rates were assessed by flow cytometry after 5 days of incubation.
Percentage suppression (S) of proliferation was calculated using the following formula:
Where c=percentage of proliferating precursors in the presence of Tregs and d=percentage of proliferating precursors in the absence of Tregs.

integrin β7 on Tregs = experiment: Dose response of integrin β7 induction on expanded Tregs; assay type: cell-based; conditions: Homo sapiens; Tregs in in vitro culture, FIG. 2c; read-out: EC50 to induce the expression of integrin β7
Method: as §1, §2

RARα = target: T1, RARα (Homo sapiens, UniProt P10276); experiment: Selectivity profile against human RARs (RARα agonism); assay type: biochemical
T1 sequence (P10276 1-462): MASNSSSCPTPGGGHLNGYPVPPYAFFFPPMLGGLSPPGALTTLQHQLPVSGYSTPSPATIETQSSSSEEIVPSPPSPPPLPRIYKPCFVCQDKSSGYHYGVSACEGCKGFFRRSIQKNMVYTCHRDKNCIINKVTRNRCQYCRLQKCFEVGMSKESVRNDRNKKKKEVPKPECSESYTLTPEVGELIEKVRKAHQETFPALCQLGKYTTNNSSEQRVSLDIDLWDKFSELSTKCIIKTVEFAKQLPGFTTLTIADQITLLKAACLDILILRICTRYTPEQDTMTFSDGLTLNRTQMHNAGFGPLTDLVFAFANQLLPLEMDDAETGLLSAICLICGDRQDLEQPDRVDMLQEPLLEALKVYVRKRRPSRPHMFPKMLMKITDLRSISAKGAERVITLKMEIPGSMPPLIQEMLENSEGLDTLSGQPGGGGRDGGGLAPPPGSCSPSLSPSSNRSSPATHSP

CD62L on Tregs = experiment: CD62L expression following ex vivo expansion; assay type: cell-based, human; conditions: FIG. 9
Source text: To address the balance between regulatory and effector T cells in the lamina propria of patients with CD, we sought to develop a highly suppressive, phenotypically stable population of autologous ex vivo expanded Tregs that were licensed to traffic to the gut by high level expression of α4β7. These cells could then be utilized as an autologous cell-based therapy for CD. We compared the efficacy of ATRA with RAR568 at inducing α4β7, to determine which agent would be more suitable for downstream application in a clinical trial of Treg therapy for CD. As previously defined^22, our standard culture conditions used the CD4^+CD25^hiCD127^loCD45RA^+ nïave Treg subset, cultured in the presence of rapamycin (RAPA) and high dose IL-2. […] Additionally, cells cultured in the presence of RAR568 cumulatively expressed more α4β7 than those cultured in the presence of ATRA (95.89±1.93 vs 74.21±25.89, p=0.024; FIG. 2b). […] The expression of CD62L, required for homing to the lymph nodes and the effective interaction between integrin α4β7 and its ligand MAdCAM-1 was maintained following ex vivo expansion, irrespective of retinoid treatment (FIG. 9).

integrin α4β7 on Tregs = experiment: α4β7 expression on ex vivo expanded CD45RA+ Tregs from CD patients (flow cytometry); assay type: cell-based, human; conditions: CD4+CD25hiCD127loCD45RA+ Tregs cultured with rapamycin and high dose IL-2 plus the agonist; mean ± SD
Method: “Complete X-VIVO-15” (Lonza, Walkersville, MD) was used for ex vivo Treg expansion, Treg cytokine challenge experiments and Treg suppression assays. This was supplemented with 100 nM or 10 nM Rapamycin and all-trans retinoic acid (ATRA) 2 μM or 1 nM, or Rapamycin and RAR568 1 nM.
as §1
as §2, with “performed. […]” for “performed.”

RAR γ = target: T2, RAR γ (Homo sapiens, UniProt P13631); experiment: Selectivity profile against human RARs (RARγ); assay type: biochemical
T2 sequence (P13631 1-454): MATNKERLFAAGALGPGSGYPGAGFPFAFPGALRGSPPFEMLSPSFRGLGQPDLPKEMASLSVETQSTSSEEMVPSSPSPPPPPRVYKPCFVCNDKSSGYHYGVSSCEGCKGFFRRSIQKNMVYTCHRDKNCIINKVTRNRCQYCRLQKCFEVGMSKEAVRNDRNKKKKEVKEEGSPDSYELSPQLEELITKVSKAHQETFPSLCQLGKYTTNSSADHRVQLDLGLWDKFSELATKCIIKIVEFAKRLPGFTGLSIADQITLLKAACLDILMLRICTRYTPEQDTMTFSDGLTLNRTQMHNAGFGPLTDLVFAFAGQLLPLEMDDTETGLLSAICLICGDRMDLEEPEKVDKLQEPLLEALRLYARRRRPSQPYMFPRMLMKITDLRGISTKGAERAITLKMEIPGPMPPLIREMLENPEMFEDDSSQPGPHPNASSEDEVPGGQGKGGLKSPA

EC50 (integrin β7 on Tregs): 0.01 nM | EC50 (RARα): 0.59 nM | selectivity over RAR γ (RAR γ): > 13,000 fold
Compound: CCOc1c(Cl)cc(C(=O)Nc2ccc(C(=O)O)c(C)c2)cc1OC(C)C [RAR568]
FOXP3 expression of expanded Tregs (FOXP3 in Tregs; mean ± SD): 96.99% ±3.51 | FOXP3 expression, range (FOXP3 in Tregs; range): 91.5-99.8 | Suppressive ability of expanded Tregs (Effector T cells (Teff)): highly suppressive even at the lowest (8:1) titration | expression of CD62L following expansion (CD62L on Tregs): not affected | α4β7 expression of expanded Tregs (integrin α4β7 on Tregs): 95.9±1.93 and 95.89±1.93
